From publication PMC2074754, “Effects of the selective bisindolylmaleimide protein kinase C inhibitor GF 109203X on P-glycoprotein-mediated multidrug resistance” (British Journal of Cancer, 1996) come the findings set out here.

The target of series [1] is T1, P-glycoprotein (P-gp, MDR1) (Homo sapiens, UniProt P08183).
T1 construct: gene ABCB1
The series can be described thus: [3H]vinblastine radioligand competition and inhibition of [3H]azidopine photoaffinity labelling of the […] kDa P-gp band. In kind it is binding. (In general: Displacement assays read how much labelled ligand stays bound in the presence of the test substance.)

Series [2] has as its target T1, P-glycoprotein (P-gp, MDR1). The series can be described thus: radioligand binding with self-competition by unlabelled vinblastine.

T1 sequence (P08183 whole entry): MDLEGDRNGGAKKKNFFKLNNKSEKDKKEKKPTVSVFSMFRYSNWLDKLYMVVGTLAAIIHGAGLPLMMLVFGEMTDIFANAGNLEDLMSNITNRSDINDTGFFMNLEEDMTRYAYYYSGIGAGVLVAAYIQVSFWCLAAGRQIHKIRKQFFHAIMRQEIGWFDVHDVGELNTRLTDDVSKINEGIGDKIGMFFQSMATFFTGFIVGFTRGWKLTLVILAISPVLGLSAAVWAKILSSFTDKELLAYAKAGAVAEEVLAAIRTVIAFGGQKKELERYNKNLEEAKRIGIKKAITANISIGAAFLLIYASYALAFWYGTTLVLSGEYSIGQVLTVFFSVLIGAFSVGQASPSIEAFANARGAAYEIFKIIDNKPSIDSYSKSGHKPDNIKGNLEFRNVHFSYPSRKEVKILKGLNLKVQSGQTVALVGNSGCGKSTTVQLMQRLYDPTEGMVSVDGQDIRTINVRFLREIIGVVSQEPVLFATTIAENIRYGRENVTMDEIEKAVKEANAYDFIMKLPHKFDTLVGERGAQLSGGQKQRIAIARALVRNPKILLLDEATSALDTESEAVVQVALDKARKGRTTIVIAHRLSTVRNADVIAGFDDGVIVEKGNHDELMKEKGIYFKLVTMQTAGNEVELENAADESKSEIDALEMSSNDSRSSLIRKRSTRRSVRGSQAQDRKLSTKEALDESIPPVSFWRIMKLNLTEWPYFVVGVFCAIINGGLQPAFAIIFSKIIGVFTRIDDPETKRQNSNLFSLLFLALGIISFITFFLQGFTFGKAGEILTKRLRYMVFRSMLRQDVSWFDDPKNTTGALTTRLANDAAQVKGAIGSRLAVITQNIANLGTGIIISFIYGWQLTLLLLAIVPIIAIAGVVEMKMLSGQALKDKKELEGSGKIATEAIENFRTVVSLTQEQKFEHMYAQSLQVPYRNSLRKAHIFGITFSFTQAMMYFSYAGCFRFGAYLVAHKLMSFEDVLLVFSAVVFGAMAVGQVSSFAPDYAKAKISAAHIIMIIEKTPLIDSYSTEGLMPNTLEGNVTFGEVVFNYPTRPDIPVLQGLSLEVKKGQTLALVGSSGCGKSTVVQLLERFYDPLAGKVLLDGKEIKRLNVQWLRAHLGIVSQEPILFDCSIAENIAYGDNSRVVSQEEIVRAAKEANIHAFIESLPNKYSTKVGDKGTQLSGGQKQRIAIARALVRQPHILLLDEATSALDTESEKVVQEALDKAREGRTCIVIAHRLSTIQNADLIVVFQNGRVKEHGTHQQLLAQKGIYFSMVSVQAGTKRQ

With `CN(C)CCCn1cc(C2=C(c3c[nH]c4ccccc34)C(=O)NC2=O)c2ccccc21` [GF 109203X], the “[3H]vinblastine radioligand competition and inhibition of [3H]azidopine photoaff” value in series [1] was “Inhibition of the photo- affinity labelling was observed in a similar micromolar”.

In the case of `CC[C@]1(O)C[C@@H]2CN(CCc3c([nH]c4ccccc34)[C@@](C(=O)OC)(c3cc4c(cc3OC)N(C)[C@H]3[C@@](O)(C(=O)OC)[C@H](OC(C)=O)[C@]5(CC)C=CCN6CC[C@]43[C@@H]65)C2)C1` [vinblastine sulphate], the “radioligand binding with self-competition by unlabelled vinblastine” value in series [2] is “Competition of [3H]vinblastine sulphate binding by unlabelled vinblastine sulphate was included as a control”.
